# Source: patent US11339171B2, “MDM2 inhibitors” (Gan & Lee Pharmaceuticals, priority 2017, dated 2022)
# Tested on: human osteosarcoma cell line SJSA-1
# Assay: Inhibition of proliferation of human osteosarcoma cell line SJSA-1 (DAPI staining, In Cell Analyzer)
# Conditions: Homo sapiens, SJSA-1, 72 h, read-out: IC50 (nM), inhibitory activity on proliferation of human osteosarcoma cell line SJSA-1, SJSA-1, incubated 72 h
row,IC50 [nM],SMILES
1,3180,"COc1ccc(-c2nc3c(n2C(C)C)[C@]2(C(=O)Nc4cc(Cl)ccc42)N(c2cccc(Cl)c2)C3=O)c(OC)c1 [Example R-36, (R)-6-chloro-5′-(3-chlorophenyl)-2′-(2,4-dimethoxyphenyl)-3′-isopropyl-3′H-spiro[dihydroindole-3,4′-pyrrolo[3,4-d]imidazole]-2,6′(5′H)-dione]"
2,83.8,"COc1ccc(-c2nc3c(n2C(C)C)[C@@]2(C(=O)Nc4cc(Cl)ccc42)N(c2cccc(Cl)c2)C3=O)c(OC)c1 [Example S-36, (S)-6-chloro-5′-(3-chlorophenyl)-2′-(2,4-dimethoxyphenyl)-3′-isopropyl-3′H-spiro[dihydroindole-3,4′-pyrrolo[3,4-d]imidazole]-2,6′(5′H)-dione]"

# Same assay, conditions: labels are Example numbers; the compounds with S-configuration are meant
row,SMILES,inhibitory effect on human osteosarcoma cell line SJSA-1 compared with positive control compound HDM201
1,"COc1cc(C(C)C)ccc1-c1nc2c(n1C(C)C)C1(C(=O)Nc3cc(Cl)ccc31)N(c1cc(Cl)ccc1C)C2=O (stereo not drawn) [Example 32, 6-chloro-5′-(5-chloro-2-methylphenyl)-3′-isopropyl-2′-(4-isopropyl-2-methoxyphenyl)-3′H-spiro[dihydroindole-3,4′-pyrrolo[3,4-d]imidazole]-2,6′(5′H)-dione]",better
2,"CCc1ccc(-c2nc3c(n2C(C)C)C2(C(=O)Nc4cc(Cl)ccc42)N(c2cc(Cl)ccc2C)C3=O)c(OC)c1 (stereo not drawn) [Example 33, 6-chloro-5′-(5-chloro-2-methylphenyl)-2′-(4-ethyl-2-methoxyphenyl)-3′-isopropyl-3′H-spiro[dihydroindole-3,4′-pyrrolo[3,4-d]imidazole]-2,6′(5′H)-dione]",better
3,"COc1cc(OC)c(-c2nc3c(n2C(C)C)C2(C(=O)Nc4cc(Cl)ccc42)N(c2cc(Cl)ccc2C)C3=O)cc1C (stereo not drawn) [Example 83, 6-chloro-5′-(5-chloro-2-methylphenyl)-2′-(2,4-dimethoxy-5-methylphenyl)-3′-isopropyl-3′H-spiro[dihydroindole-3,4′-pyrrolo[3,4-d]imidazole]-2,6′(5′H)-dione]",better
4,"COc1cc(C2CC2)ccc1-c1nc2c(n1C(C)C)C1(C(=O)Nc3cc(Cl)ccc31)N(c1cc(Cl)ccc1C)C2=O (stereo not drawn) [Example 86, 6-chloro-5′-(5-chloro-2-methylphenyl)-2′-(4-cyclopropyl-2-methoxyphenyl)-3′-isopropyl-3′H-spiro[dihydroindole-3,4′-pyrrolo[3,4-d]imidazole]-2,6′(5′H)-dione]",better
5,"COc1cc(C(C)C)ccc1-c1nc2c(n1C(C)C)C1(C(=O)Nc3cc(Cl)ccc31)N(c1cc(Cl)cnc1C)C2=O (stereo not drawn) [Example 89, 6-chloro-5′-(5-chloro-2-methylpyridin-3-yl)-3′-isopropyl-2′-(4-isopropyl-2-methoxyphenyl)-3′H-spiro[dihydroindole-3,4′-pyrrolo[3,4-d]imidazole]-2,6′(5′H)-dione]",better
6,"COc1cc(N(C)C)c(C)cc1-c1nc2c(n1C(C)C)C1(C(=O)Nc3cc(Cl)ccc31)N(c1cc(Cl)ccc1C)C2=O (stereo not drawn) [Example 91, 6-chloro-5′-(5-chloro-2-methylphenyl)-2′-(4-(dimethylamino)-2-methoxy-5-methylphenyl)-3′-isopropyl-3′H-spiro[dihydroindole-3,4′-pyrrolo[3,4-d]imidazole]-2,6′(5′H)-dione]",better
7,"CCN(C)c1ccc(-c2nc3c(n2C(C)C)C2(C(=O)Nc4cc(Cl)ccc42)N(c2cc(Cl)ccc2C)C3=O)c(OC)c1 (stereo not drawn) [Example 99, 6-chloro-5′-(5-chloro-2-methylphenyl)-2′-(4-(ethyl(methyl)amino)-2-methoxyphenyl)-3′-isopropyl-3′H-spiro[dihydroindole-3,4′-pyrrolo[3,4-d]imidazole]-2,6′(5′H)-dione]",better
8,"COc1cc(C(C)(C)C)ccc1-c1nc2c(n1C(C)C)C1(C(=O)Nc3cc(Cl)ccc31)N(c1cc(Cl)ccc1C)C2=O (stereo not drawn) [Example 101, 2′-(4-(tert-butyl)-2-methoxyphenyl)-6-chloro-5′-(5-chloro-2-methylphenyl)-3′-isopropyl-3′H-spiro[dihydroindole-3,4′-pyrrolo[3,4-d]imidazole]-2,6′(5′H)-dione]",better
9,"COc1cc(C2CC2)ncc1-c1nc2c(n1C(C)C)C1(C(=O)Nc3cc(Cl)ccc31)N(c1cccc(Cl)c1)C2=O (stereo not drawn) [Example 106, 6-chloro-5′-(3-chlorophenyl)-2′-(6-cyclopropyl-4-methoxypyridin-3-yl)-3′-isopropyl-3′H-spiro[dihydroindole-3,4′-pyrrolo[3,4-d]imidazole]-2,6′(5′H)-dione]",better
10,"COc1cc(C2CC2)cc(OC)c1-c1nc2c(n1C(C)C)C1(C(=O)Nc3cc(Cl)ccc31)N(c1cc(Cl)ccc1C)C2=O (stereo not drawn) [Example 108, 6-chloro-5′-(5-chloro-2-methylphenyl)-2′-(4-cyclopropyl-2,6-dimethoxyphenyl)-3′-isopropyl-3′H-spiro[dihydroindole-3,4′-pyrrolo[3,4-d]imidazole]-2,6′(5′H)-dione]",better
11,COc1nc(N2CCCC2)ncc1-c1nc2c(n1C(C)C)C1(C(=O)Nc3cc(Cl)ccc31)N(c1cc(Cl)ccc1C)C2=O (stereo not drawn) [Example 114],better
12,"CCN(C)c1ncc(-c2nc3c(n2C(C)C)C2(C(=O)Nc4cc(Cl)ccc42)N(c2cc(Cl)ccc2C)C3=O)c(OC)n1 (stereo not drawn) [Example 119, 6-chloro-5′-(5-chloro-2-methylphenyl)-2′-(2-(ethyl(methyl)amino)-4-methoxypyrimidin-5-yl)-3′-isopropyl-3′H-spiro[dihydroindole-3,4′-pyrrolo[3,4-d]imidazole]-2,6′(5′H)-dione]",better
13,"COc1nc(C2CC2)ncc1-c1nc2c(n1C(C)C)C1(C(=O)Nc3cc(Cl)ccc31)N(c1cc(Cl)ccc1C)C2=O (stereo not drawn) [Example 121, 6-chloro-5′-(5-chloro-2-methylphenyl)-2′-(2-cyclopropyl-4-methoxypyrimidin-5-yl)-3′-isopropyl-3′H-spiro[dihydroindole-3,4′-pyrrolo[3,4-d]imidazole]-2,6′(5′H)-dione]",better
14,CCOc1ncc(-c2nc3c(n2C(C)C)C2(C(=O)Nc4cc(Cl)ccc42)N(c2cc(Cl)ccc2C)C3=O)c(OC)n1 (stereo not drawn) [Example 127],better
15,"COc1nc(OCC(F)(F)F)ncc1-c1nc2c(n1C(C)C)C1(C(=O)Nc3cc(Cl)ccc31)N(c1cc(Cl)ccc1C)C2=O (stereo not drawn) [Example 141, 6-chloro-5′-(5-chloro-2-methylphenyl)-3′-isopropyl-2′-(4-methoxy-2-(2,2,2-trifluoroethoxy)pyrimidin-5-yl)-3′H-spiro[dihydroindole-3,4′-pyrrolo[3,4-d]imidazole]-2,6′(5′H)-dione]",better
16,"COc1cc(C2CC2)ccc1-c1nc2c(n1C(C)C)C1(C(=O)Nc3cc(Cl)ccc31)N(c1cc(Cl)cnc1C)C2=O (stereo not drawn) [Example 145, 6-chloro-5′-(5-chloro-2-methylpyridin-3-yl)-2′-(4-cyclopropyl-2-methoxyphenyl)-3′-isopropyl-3′H-spiro[dihydroindole-3,4′-pyrrolo[3,4-d]imidazole]-2,6′(5′H)-dione]",better
17,"CCOc1ccc(-c2nc3c(n2C(C)C)C2(C(=O)Nc4cc(Cl)ccc42)N(c2cc(Cl)ccc2C)C3=O)c(OC)n1 (stereo not drawn) [Example 146, 6-chloro-5′-(5-chloro-2-methylphenyl)-2′-(6-ethoxy-2-methoxypyridin-3-yl)-3′-isopropyl-3′H-spiro[dihydroindole-3,4′-pyrrolo[3,4-d]imidazole]-2,6′(5′H)-dione]",better
18,"COc1nc(N(C)C)ccc1-c1nc2c(n1C(C)C)C1(C(=O)Nc3cc(Cl)ccc31)N(c1cc(Cl)ccc1C)C2=O (stereo not drawn) [Example 157, 6-chloro-5′-(5-chloro-2-methylphenyl)-2′-(6-(dimethylamino)-2-methoxypyridin-3-yl)-3′-isopropyl-3′H-spiro[dihydroindole-3,4′-pyrrolo[3,4-d]imidazole]-2,6′(5′H)-dione]",better
19,"COc1nc(C2CC2)ncc1-c1nc2c(n1C(C)C)C1(C(=O)Nc3cc(Cl)ccc31)N(c1cc(Cl)cnc1C)C2=O (stereo not drawn) [Example 159, 6-chloro-5′-(5-chloro-2-methylpyridin-3-yl)-2′-(2-cyclopropyl-4-methoxypyrimidin-5-yl)-3′-isopropyl-3′H-spiro[dihydroindole-3,4′-pyrrolo[3,4-d]imidazole]-2,6′(5′H)-dione]",better
20,"COc1cc(N(C)CCO)ccc1-c1nc2c(n1C(C)C)C1(C(=O)Nc3cc(Cl)ccc31)N(c1cc(Cl)ccc1C)C2=O (stereo not drawn) [Example 162, 6-chloro-5′-(5-chloro-2-methylphenyl)-2′-(4-((2-hydroxyethyl)(methyl)amino)-2-methoxyphenyl)-3′-isopropyl-3′H-spiro[dihydroindole-3,4′-pyrrolo[3,4-d]imidazole]-2,6′(5′H)-dione]",better
21,"COc1nc(C(C)C)ncc1-c1nc2c(n1C(C)C)C1(C(=O)Nc3cc(Cl)ccc31)N(c1cc(Cl)ccc1C)C2=O (stereo not drawn) [Example 172, 6-chloro-5′-(5-chloro-2-methylphenyl)-3′-isopropyl-2′-(2-isopropyl-4-methoxypyrimidin-5-yl)-3′H-spiro[dihydroindole-3,4′-pyrrolo[3,4-d]imidazole]-2,6′(5′H)-dione]",better

# Same assay, conditions: read-out: IC50 (nM), inhibitory activity on proliferation of human osteosarcoma cell line SJSA-1; SJSA-1, incubated 72 h
row,IC50 [nM],SMILES
1,72.3,"COc1ccc(-c2nc3c(n2C(C)C)[C@@]2(C(=O)Nc4cc(Cl)ccc42)N(c2cccc(Cl)c2)C3=O)c(OC)c1 [Example S-36, (S)-6-chloro-5′-(3-chlorophenyl)-2′-(2,4-dimethoxyphenyl)-3′-isopropyl-3′H-spiro[dihydroindole-3,4′-pyrrolo[3,4-d]imidazole]-2,6′(5′H)-dione]"
